Where a name gives a salt, the structure may show the parent alone.

24 molecules from patent US20250276964A1 (Novartis AG, priority 2021, published 2025) can be followed below.

This test concerns the target T1, WIZ (Homo sapiens, UniProt O95785+Q96SW2).
T1 construct: expressed in transfected cells
Kind of test: Quantification of WIZ protein levels in HiBit tag fusion protein assay (WIZ HiBit assay in 293T cells). Conditions: for Dmax at 25 µM / remaining activity at 25 µM: HEK-293T; for Dmax at 25 µM / % degradation of WIZ (100-Amax): 100 minus Amax at 25 uM; for Dmax at 25 µM: read-out: % degradation of WIZ (100-Amax); for remaining activity at 25 µM / WIZ Amax: DMSO-normalized, curve-fitted percentage of WIZ-HiBit remaining at 25 uM; for remaining activity at 25 µM: read-out: WIZ Amax; for DC50: WIZ HiBit assay in 293T cells, 10-point, 5-fold dilution, highest concentration 25 μM, about 18 hours, read-out: WIZ AC50. The format is cell-based. Put shortly:
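293T cells stably carrying single-copy HiBit-WIZ (HSVTK promoter) treated ~18 h at 37 °C with 10-point, 5-fold dilutions, top 25 μM. Lytic HiBit luminescence read; Amax is DMSO-normalised, curve-fitted % WIZ-HiBit remaining at 25 uM.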
A general note: The HiBiT peptide binds its large partner to form an active luciferase.

T1 sequence (O95785 whole entry): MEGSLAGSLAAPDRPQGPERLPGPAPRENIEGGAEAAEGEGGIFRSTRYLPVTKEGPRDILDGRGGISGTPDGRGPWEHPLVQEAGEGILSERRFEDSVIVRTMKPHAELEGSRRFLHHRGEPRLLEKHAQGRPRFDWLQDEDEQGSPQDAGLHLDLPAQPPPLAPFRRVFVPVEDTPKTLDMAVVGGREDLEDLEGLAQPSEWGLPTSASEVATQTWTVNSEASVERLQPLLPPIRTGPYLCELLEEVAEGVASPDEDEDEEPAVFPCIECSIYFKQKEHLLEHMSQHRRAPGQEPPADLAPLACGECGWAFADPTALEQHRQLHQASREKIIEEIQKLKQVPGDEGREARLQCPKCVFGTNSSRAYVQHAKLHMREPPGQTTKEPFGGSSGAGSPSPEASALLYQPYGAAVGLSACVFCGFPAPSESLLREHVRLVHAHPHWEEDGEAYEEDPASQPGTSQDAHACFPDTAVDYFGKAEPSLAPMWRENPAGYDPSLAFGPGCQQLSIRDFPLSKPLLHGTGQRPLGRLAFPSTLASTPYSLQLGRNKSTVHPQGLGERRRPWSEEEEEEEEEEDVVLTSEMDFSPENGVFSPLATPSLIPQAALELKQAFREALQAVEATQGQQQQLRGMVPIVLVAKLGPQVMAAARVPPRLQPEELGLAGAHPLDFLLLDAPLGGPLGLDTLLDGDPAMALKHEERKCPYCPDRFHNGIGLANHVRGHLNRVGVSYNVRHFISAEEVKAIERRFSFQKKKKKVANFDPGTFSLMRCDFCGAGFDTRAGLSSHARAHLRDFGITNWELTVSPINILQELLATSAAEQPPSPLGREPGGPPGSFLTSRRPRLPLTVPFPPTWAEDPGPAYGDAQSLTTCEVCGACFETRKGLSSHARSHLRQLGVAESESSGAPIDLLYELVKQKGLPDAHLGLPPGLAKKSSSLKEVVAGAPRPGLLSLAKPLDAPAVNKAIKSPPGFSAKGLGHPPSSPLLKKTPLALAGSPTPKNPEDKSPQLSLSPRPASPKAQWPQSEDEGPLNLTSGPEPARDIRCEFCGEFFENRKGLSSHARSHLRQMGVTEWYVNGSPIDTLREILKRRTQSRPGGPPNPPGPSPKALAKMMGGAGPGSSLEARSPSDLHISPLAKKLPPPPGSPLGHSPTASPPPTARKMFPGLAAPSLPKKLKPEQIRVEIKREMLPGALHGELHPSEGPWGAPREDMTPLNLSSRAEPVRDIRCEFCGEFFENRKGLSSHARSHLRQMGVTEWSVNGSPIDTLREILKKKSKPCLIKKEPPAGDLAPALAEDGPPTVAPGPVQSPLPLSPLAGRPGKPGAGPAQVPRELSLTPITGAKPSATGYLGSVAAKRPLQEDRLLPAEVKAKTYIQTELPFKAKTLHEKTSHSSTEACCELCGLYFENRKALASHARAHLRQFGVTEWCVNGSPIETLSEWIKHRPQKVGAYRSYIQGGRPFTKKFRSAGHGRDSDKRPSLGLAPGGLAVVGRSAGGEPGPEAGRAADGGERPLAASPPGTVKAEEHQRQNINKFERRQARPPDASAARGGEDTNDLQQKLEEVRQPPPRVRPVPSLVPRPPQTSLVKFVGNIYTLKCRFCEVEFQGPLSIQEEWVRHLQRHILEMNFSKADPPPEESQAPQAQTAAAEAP
T1 sequence (Q96SW2 whole entry): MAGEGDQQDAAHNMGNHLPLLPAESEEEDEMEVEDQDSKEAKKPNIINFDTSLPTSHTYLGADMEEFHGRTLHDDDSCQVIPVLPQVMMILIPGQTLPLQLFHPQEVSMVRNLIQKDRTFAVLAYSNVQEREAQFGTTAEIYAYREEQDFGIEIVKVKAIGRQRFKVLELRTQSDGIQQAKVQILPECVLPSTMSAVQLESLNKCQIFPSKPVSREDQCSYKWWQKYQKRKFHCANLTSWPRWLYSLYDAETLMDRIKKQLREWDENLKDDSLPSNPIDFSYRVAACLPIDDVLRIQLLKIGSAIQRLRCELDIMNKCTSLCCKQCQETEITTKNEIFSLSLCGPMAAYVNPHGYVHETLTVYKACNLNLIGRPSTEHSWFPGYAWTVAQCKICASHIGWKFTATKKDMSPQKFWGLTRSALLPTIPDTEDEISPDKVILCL
T1 sequence (Q16531 whole entry partner): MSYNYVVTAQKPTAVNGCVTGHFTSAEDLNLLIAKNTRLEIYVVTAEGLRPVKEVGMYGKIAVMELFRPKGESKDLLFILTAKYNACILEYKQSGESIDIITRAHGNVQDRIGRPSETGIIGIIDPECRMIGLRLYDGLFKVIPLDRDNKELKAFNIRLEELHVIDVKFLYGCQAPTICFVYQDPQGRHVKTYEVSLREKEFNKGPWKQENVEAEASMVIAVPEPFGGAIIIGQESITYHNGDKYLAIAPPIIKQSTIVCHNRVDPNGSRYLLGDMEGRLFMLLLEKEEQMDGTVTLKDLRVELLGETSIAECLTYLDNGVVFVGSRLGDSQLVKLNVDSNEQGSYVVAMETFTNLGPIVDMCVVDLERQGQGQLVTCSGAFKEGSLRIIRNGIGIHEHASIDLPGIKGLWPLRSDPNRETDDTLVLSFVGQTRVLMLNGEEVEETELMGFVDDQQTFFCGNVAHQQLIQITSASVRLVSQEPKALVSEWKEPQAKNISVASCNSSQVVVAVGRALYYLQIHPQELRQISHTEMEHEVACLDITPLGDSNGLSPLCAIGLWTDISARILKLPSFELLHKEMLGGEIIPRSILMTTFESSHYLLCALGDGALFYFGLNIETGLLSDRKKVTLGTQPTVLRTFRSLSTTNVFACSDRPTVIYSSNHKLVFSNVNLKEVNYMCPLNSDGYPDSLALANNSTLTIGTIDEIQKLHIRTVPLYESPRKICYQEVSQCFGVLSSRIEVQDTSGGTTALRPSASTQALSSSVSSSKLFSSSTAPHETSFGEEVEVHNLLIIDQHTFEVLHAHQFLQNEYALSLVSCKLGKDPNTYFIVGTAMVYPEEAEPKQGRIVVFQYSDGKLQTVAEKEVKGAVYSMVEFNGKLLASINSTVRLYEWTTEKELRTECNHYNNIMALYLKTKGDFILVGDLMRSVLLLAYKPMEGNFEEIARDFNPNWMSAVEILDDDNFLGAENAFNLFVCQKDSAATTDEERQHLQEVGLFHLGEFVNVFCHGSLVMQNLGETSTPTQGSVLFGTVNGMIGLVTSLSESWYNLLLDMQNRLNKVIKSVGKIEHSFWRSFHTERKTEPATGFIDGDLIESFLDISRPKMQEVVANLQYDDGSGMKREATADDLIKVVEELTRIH

`O=C1CCN(c2noc3ccc(CC4CCN(CC5CCCCC5)CC4)cc23)C(=O)N1` [Example 1, 1-(5-((1-(cyclohexylmethyl)piperidin-4-yl)methyl)benzo[d]isoxazol-3-yl)dihydropyrimidine-2,4(1H,3H)-dione]: the Dmax at 25 µM came to 91%, the remaining activity at 25 µM was found to be 9% and the DC50 turned out to be 7.2 nM.

In the case of `O=C1CCN(c2noc3ccc(CC4CCN(Cc5cccc(F)c5)CC4)cc23)C(=O)N1` [Example 7, 1-(5-((1-(3-fluorobenzyl)piperidin-4-yl)methyl)benzo[d]isoxazol-3-yl)dihydropyrimidine-2,4(1H,3H)-dione], the Dmax at 25 µM was found to be 91%, the remaining activity at 25 µM was determined as 9% and the DC50 is 18 nM.

Consider `COC[C@H]1CN(Cc2ccc3onc(N4CCC(=O)NC4=O)c3c2)CCN1CC(C)C` [Example 114, (R)-1-(5-((4-isobutyl-3-(methoxymethyl)piperazin-1-yl)methyl)benzo[d]isoxazol-3-yl)dihydropyrimidine-2,4(1H,3H)-dione], for which the Dmax at 25 µM was 85%, the remaining activity at 25 µM came out at 15% and the DC50 came to 115 nM.

For the molecule `CN1C[C@H]2CC[C@@H](C1)N2Cc1ccc2onc(N3CCC(=O)NC3=O)c2c1` [Example 103, 1-(5-(((1R,5S)-3-methyl-3,8-diazabicyclo[3.2.1]octan-8-yl)methyl)benzo[d]isoxazol-3-yl)dihydropyrimidine-2,4(1H,3H)-dione], the Dmax at 25 µM amounted to 86%, the remaining activity at 25 µM is 14% and the DC50 was 68 nM.

Regarding `CN1CC2CCC1CN2Cc1ccc2onc(N3CCC(=O)NC3=O)c2c1` (single isomer, unassigned) [Example 123, 1-(5-((5-methyl-2,5-diazabicyclo[2.2.2]octan-2-yl)methyl)benzo[d]isoxazol-3-yl)dihydropyrimidine-2,4(1H,3H)-dione], the Dmax at 25 µM stood at 89%, the remaining activity at 25 µM turned out to be 11% and the DC50 was determined as 59 nM.

With `CN1[C@@H]2CC[C@H]1CC(Cc1ccc3onc(N4CCC(=O)NC4=O)c3c1)C2` (stereo partly drawn) [Example 59, 1-(5-(((1R,5S)-8-methyl-8-azabicyclo[3.2.1]octan-3-yl)methyl)benzo[d]isoxazol-3-yl)dihydropyrimidine-2,4(1H,3H)-dione], the “% degradation of WIZ (100-Amax)” value is given as 84%, the “WIZ Amax” value is listed as 16% and the DC50 is 25 nM.

Take `C[C@H]1CN(Cc2ccc3onc(N4CCC(=O)NC4=O)c3c2)CCN1CC1CCOCC1` [Example 31, (S)-1-(5-((3-methyl-4-((tetrahydro-2H-pyran-4-yl)methyl)piperazin-1-yl)methyl)benzo[d]isoxazol-3-yl)dihydropyrimidine-2,4(1H,3H)-dione]: the Dmax at 25 µM was 91%, the remaining activity at 25 µM turned out to be 9% and the DC50 was found to be 6.9 nM.

With `C[C@@H]1CN(S(C)(=O)=O)CCN1Cc1ccc2onc(N3CCC(=O)NC3=O)c2c1` [Example 71, (R)-1-(5-((2-methyl-4-(methylsulfonyl)piperazin-1-yl)methyl)benzo[d]isoxazol-3-yl)dihydropyrimidine-2,4(1H,3H)-dione], the Dmax at 25 µM stood at 82%, the remaining activity at 25 µM is 18% and the DC50 was 34 nM.

In the case of `O=C1CCN(c2noc3ccc(CN4CC5CCC4CN5CC4CCOCC4)cc23)C(=O)N1` (single isomer, unassigned) [Example 122, 1-(5-((5-((tetrahydro-2H-pyran-4-yl)methyl)-2,5-diazabicyclo[2.2.2]octan-2-yl)methyl)benzo[d]isoxazol-3-yl)dihydropyrimidine-2,4(1H,3H)-dione], the “% degradation of WIZ (100-Amax)” value is 91%, the “WIZ Amax” value was found to be 9% and the DC50 was found to be 44 nM.

On to `CN1[C@@H]2CC[C@H]1CC(Cc1ccc3onc(N4CCC(=O)NC4=O)c3c1)C2` (stereo partly drawn) [Example 58, 1-(5-(((1R,5S)-8-methyl-8-azabicyclo[3.2.1]octan-3-yl)methyl)benzo[d]isoxazol-3-yl)dihydropyrimidine-2,4(1H,3H)-dione], for which the Dmax at 25 µM was 89%, the remaining activity at 25 µM was determined as 11% and the DC50 was 20 nM.

Regarding `O=C1CCN(c2noc3ccc(CC4CCN(Cc5cccnc5)CC4)cc23)C(=O)N1` [Example 4, 1-(5-((1-(pyridin-3-ylmethyl)piperidin-4-yl)methyl)benzo[d]isoxazol-3-yl)dihydropyrimidine-2,4(1H,3H)-dione], the Dmax at 25 µM amounted to 92%, the remaining activity at 25 µM came out at 8% and the DC50 stood at 33 nM.

On to `CC(C)[C@@H]1CN(C)CCN1Cc1ccc2onc(N3CCC(=O)NC3=O)c2c1` [Example 89, (R)-1-(5-((2-isopropyl-4-methylpiperazin-1-yl)methyl)benzo[d]isoxazol-3-yl)dihydropyrimidine-2,4(1H,3H)-dione], for which the Dmax at 25 µM is 83%, the remaining activity at 25 µM came to 17% and the DC50 turned out to be 28 nM.

`O=C1CCN(c2noc3ccc(CC4CCNCC4)cc23)C(=O)N1` [Example 1b, 1-(5-(piperidin-4-ylmethyl)benzo[d]isoxazol-3-yl)dihydropyrimidine-2,4(1H,3H)-dione hydrochloride]: the Dmax at 25 µM was 88%, the remaining activity at 25 µM was 12% and the DC50 stood at 210 nM.

Take `CC[C@@H]1CN(C)CCN1Cc1ccc2onc(N3CCC(=O)NC3=O)c2c1` [Example 87, (R)-1-(5-((2-ethyl-4-methylpiperazin-1-yl)methyl)benzo[d]isoxazol-3-yl)dihydropyrimidine-2,4(1H,3H)-dione]: the Dmax at 25 µM amounted to 83%, the remaining activity at 25 µM stood at 17% and the DC50 stood at 6 nM.

In the case of `C[C@H]1CN(Cc2ccc3onc(N4CCC(=O)NC4=O)c3c2)CCN1C1COC1` [Example 82, (S)-1-(5-((3-methyl-4-(oxetan-3-yl)piperazin-1-yl)methyl)benzo[d]isoxazol-3-yl)dihydropyrimidine-2,4(1H,3H)-dione], the Dmax at 25 µM stood at 95%, the remaining activity at 25 µM was 5% and the DC50 worked out at 77 nM.

For `CC(C)(C)OC(=O)N1[C@@H]2CC[C@H]1CC(Cc1ccc3onc(N4CCC(=O)NC4=O)c3c1)C2` (single isomer, unassigned) [Example 55], the “% degradation of WIZ (100-Amax)” value is 70%, the “WIZ Amax” value is given as 30% and the DC50 worked out at 3200 nM.

Consider `CS(=O)(=O)N1CCN(Cc2ccc3onc(N4CCC(=O)NC4=O)c3c2)CC1` [Example 83, 1-(5-((4-(methylsulfonyl)piperazin-1-yl)methyl)benzo[d]isoxazol-3-yl)dihydropyrimidine-2,4(1H,3H)-dione], for which the Dmax at 25 µM is 83%, the remaining activity at 25 µM stood at 17% and the DC50 was 93 nM.

Turning to `CN1[C@@H]2CC[C@H]1CN(Cc1ccc3onc(N4CCC(=O)NC4=O)c3c1)C2` [Example 101, 1-(5-(((1R,5S)-8-methyl-3,8-diazabicyclo[3.2.1]octan-3-yl)methyl)benzo[d]isoxazol-3-yl)dihydropyrimidine-2,4(1H,3H)-dione], the Dmax at 25 µM was 78%, the remaining activity at 25 µM is 22% and the DC50 was found to be 13 nM.

On to `C[C@@H]1CN(C2CCOCC2)CCN1Cc1ccc2onc(N3CCC(=O)NC3=O)c2c1` [Example 78, (R)-1-(5-((2-methyl-4-(tetrahydro-2H-pyran-4-yl)piperazin-1-yl)methyl)benzo[d]isoxazol-3-yl)dihydropyrimidine-2,4(1H,3H)-dione], for which the Dmax at 25 µM worked out at 80%, the remaining activity at 25 µM was determined as 20% and the DC50 amounted to 37 nM.

On to `C[C@H]1CN(Cc2ccc3onc(N4CCC(=O)NC4=O)c3c2)CCN1CC1COC1` [Example 86, (S)-1-(5-((3-methyl-4-(oxetan-3-ylmethyl)piperazin-1-yl)methyl)benzo[d]isoxazol-3-yl)dihydropyrimidine-2,4(1H,3H)-dione], for which the Dmax at 25 µM came to 86%, the remaining activity at 25 µM came out at 14% and the DC50 is 11 nM.

Regarding `CN1CCCN(Cc2ccc3onc(N4CCC(=O)NC4=O)c3c2)CC1` [Example 63, 1-(5-((4-methyl-1,4-diazepan-1-yl)methyl)benzo[d]isoxazol-3-yl)dihydropyrimidine-2,4(1H,3H)-dione], the Dmax at 25 µM was 84%, the remaining activity at 25 µM turned out to be 16% and the DC50 is 28 nM.

On to `CCN1CCN(Cc2ccc3onc(N4CCC(=O)NC4=O)c3c2)[C@H](C)C1` [Example 66, (R)-1-(5-((4-ethyl-2-methylpiperazin-1-yl)methyl)benzo[d]isoxazol-3-yl)dihydropyrimidine-2,4(1H,3H)-dione], for which the Dmax at 25 µM is 86%, the remaining activity at 25 µM turned out to be 14% and the DC50 came out at 45 nM.

With `CC(C)CN1CCN(Cc2ccc3onc(N4CCC(=O)NC4=O)c3c2)[C@H](C)C1` [Example 33, (R)-1-(5-((4-isobutyl-2-methylpiperazin-1-yl)methyl)benzo[d]isoxazol-3-yl)dihydropyrimidine-2,4(1H,3H)-dione], the Dmax at 25 µM is 88%, the remaining activity at 25 µM amounted to 12% and the DC50 came out at 32 nM.

On to `O=C1CCN(c2noc3ccc(CN4CCN5[C@@H](CCS5(=O)=O)C4)cc23)C(=O)N1` [Example 112, (S)-1-(5-((1,1-dioxidohexahydro-5H-isothiazolo[2,3-a]pyrazin-5-yl)methyl)benzo[d]isoxazol-3-yl)dihydropyrimidine-2,4(1H,3H)-dione], for which the Dmax at 25 µM is 87%, the remaining activity at 25 µM was found to be 13% and the DC50 is 45 nM.
